Results published in US4820703A, “PAF-antagonistic thienotriazolodiazepine compounds and pharmaceutical uses thereof” (Yoshitomi Pharmaceutical Industries Ltd., priority 1986, dated 1989).
In brackets after ≈: the same amount, converted by molar mass.

Key:
[1] = test system: PAF-induced platelet aggregation; experiment: Inhibitory effect on PAF-induced platelet aggregation in rabbits (in vitro test); assay type: cell-based; conditions: Oryctolagus cuniculus, rabbit PRP, PAF 1.8×10^-7 M, 37° C., read-out: Inhibition of PAF-induced platelet aggregation, IC50
Protocol: Blood samples to which was added 0.1 volume of 3.8% sodium citrate were collected from rabbits. Platelet rich plasma (PRP) was prepared by centrifuging the blood sample at 200×g for 10 minutes, and platelet poor plasma (PPP) was prepared by centrifuging the remaining blood sample at 1000×g for 10 minutes.
(§1) Aggregation ability was measured with a turbidimetric device (6-channel NKK Hematracer 1, model PAT-6A) according to the method of G.V.R. Born described in J. Physiology, vol. 168, p. 178 (1963). The aggregometer was adjusted in sensitivity to give light transmission vaues of 0 and 100% for PRP and PPP, respectively. With stirring at 1000 rpm, 0.3 μl of test compound solution or vehicle was added to 0.3 ml of PRP. After the mixture was kept at 37° C. for 2 minutes, to the mixture was added 3 μl PAF (Serdary Research Lab.) at the final concentration of 1.8×10^-7 M and the light transmission was recorded for 5 minutes.
In all experiments, PAF was dissolved in ethanol at the concentration of 100 μg/ml, and, when used, diluted with 0.9% saline solution.
(§2) The inhibition percentage of test compounds on platelet aggregation were calculated from the following formula by measuring the maximal light transmission in the presence and absence of the test compounds. [formula]

[2] = test system: PAF-induced foot edema; experiment: Effect on PAF edema (PAF-induced foot edema in rats); assay type: in vivo, rats (male Donryu); conditions: 1 hour after PAF 5 μg s.c.
Protocol: The experiment was carried out according to the method of Swingle et al. described in Agents and Actions, vol. 18, p. 359 (1986). Groups of five male Donryu rats weighing about 150 g were used. One hour after the oral administration of test compound (25 ml/kg), 5 μg/0.05 ml of PAF solution was subcutaneously injected to the paw of the right hind leg. The foot volume of the hind leg was measured 1 hour after the injection. The increasing ratios of foot volume before and after PAF injection were calculated.

[3] = test system: platelet aggregation; experiment: Inhibitory effect on platelet aggregation in rabbits (ex vivo test); set-up: species or system rabbit; conditions: 3 animals
Protocol: as §1, §2
Test compound was orally administered to rabbit instead of adding it to PRP as in vitro test of Experiment 1, and then the citrated blood samples (9 volumes of blood+1 volume of 3.8% sodium citrate) were collected with the passage of time. Then, the blood samples were employed to determine the inhibitory effect at 1, 3, 6 and 24 hours after the administration of test compounds, respectively, according to Experiment 1.

[4] = test system: PAF-induced lethal shock; experiment: Effect on PAF-induced lethal shock in mice; assay type: in vivo, mice (male ICR); conditions: 80 μg/kg PAF i.v., 24 hours
Protocol: The experiment was carried out according to the method of Young et al. described in Prostaglandins, vol. 30, p. […] Groups of 9 to 15 male ICR mice (Charles River) weighing 25-30 g were used. 80 μg/kg of PAF (Serdary Research Lab.) solution was intravenously administered in a lateral tail vein 1 hour after the oral administration of test compound (0.1 ml/10 g). […] Results were given as number of survivors/number of employed animals and survival rates (%) in Table 3.

[5] = test system: platelet-activating factor (PAF); conditions: literature (Japan. J. Pharmacol. 1987; EP-A 194416); cited from earlier work
[6] = test system: central system; conditions: U.S. Pat. No. 3,904,641; cited from earlier work
[7] = test system: benzodiazepine receptor; conditions: well-known; cited from earlier work
[8] = 3 mg/kg p.o., 1 hour after administration
[9] = 3 mg/kg p.o., 3 hours after administration
[10] = 3 mg/kg p.o., 6 hours after administration
[11] = 3 mg/kg p.o., 24 hours after administration

In the case of `Cc1nnc2n1-c1sc(CCc3ccc(CC(C)C)cc3)cc1C(c1ccccc1Cl)=NC2` [Compound A, 4-(2-chlorophenyl)-2-[2-(4-isobutylphenyl)ethyl]-9-methyl-6H-thieno[3,2-f][1,2,4]triazolo[4,3-a][1,4]diazepine], the IC50 [1] is reported as 0.003 to 0.01 µg/mL (≈ 0.00631 to 0.021 µM), the “Inhibition (foot edema)” value ([2]; 0.3 mg/kg oral) is reported as 31% and the “Inhibition (foot edema)” value ([2]; 1 mg/kg oral) is reported as 51%. For the same compound, the “Inhibition (foot edema)” value ([2]; 3 mg/kg oral) was 59%, the “% of inhibition” value [3, 8] was 97±3% and the “% of inhibition” value [3, 9] was 100±0%. For the same compound, the “% of inhibition” value [3, 10] was 100±0%, the “% of inhibition” value [3, 11] was 100±0% and the Survival rate ([4]; 3.0 mg/kg p.o.) was 100.0%. The “number of survivors/number of employed animals” value ([4]; 3.0 mg/kg p.o.) was 9/9.

For `Cc1ccc(CCc2cc3c(s2)-n2c(C)nnc2CN=C3c2ccccc2Cl)cc1` [Compound B, 4-(2-chlorophenyl)-2-[2-(4-methylphenyl)ethyl]-9-methyl-6H-thieno[3,2-f][1,2,4]triazolo[4,3-a][1,4]diazepine], the IC50 [1] was 0.01 to 0.03 µg/mL (≈ 0.0231 to 0.0693 µM).

Work on `Cc1nnc2n1-c1sc(CCc3ccc(CC(C)C)cc3)cc1C(c1ccccc1Cl)=NC2C` (centres unmarked) [Compound K, 4-(2-chlorophenyl)-2-[2-(4-isobutylphenyl)ethyl]-6,9-dimethyl-6H-thieno[3,2-f][1,2,4]triazolo[4,3-a][1,4]diazepine] yielded an IC50 [1] of 0.01 to 0.03 µg/mL (≈ 0.0204 to 0.0613 µM).

`Cc1nnc2n1-c1sc(CCc3ccc(-c4ccccc4)cc3)cc1C(c1ccccc1Cl)=NC2` [Compound F, 4-(2-chlorophenyl)-2-[2-(4-phenylphenyl)ethyl]-9-methyl-6H-thieno[3,2-f][1,2,4]triazolo[4,3-a][1,4]diazepine] gave an IC50 [1] of 0.01 to 0.03 µg/mL (≈ 0.0202 to 0.0606 µM).

For `CCc1cc2c(s1)-n1c(C)nnc1CN=C2c1ccccc1Cl` [Etizolam, 6-(o-chlorophenyl)-8-ethyl-1-methyl-4H-s-triazolo[3,4-c]thieno[2,3-e][1,4]diazepine, reference compound], the IC50 [1] is given as 1.3 µg/mL (≈ 3.79 µM), the “antagonistic activity on PAF” value [5] is given as “exhibits antagonistic activity” and the “Inhibition (foot edema)” value ([2]; 10 mg/kg oral) is given as 38%. For the same compound, the “Inhibition (foot edema)” value ([2]; 25 mg/kg oral) was 54%, the “% of inhibition” value ([3]; 10 mg/kg p.o., printed once for the 1, 3, 6, 24 hours columns) was “no effect” and the “pharmacological activities against the central nervous system” value [6] was “antianxiety or anticonvulsant activities”. For the same compound, the “affinity for the benzodiazepine receptor” value [7] was “high affinity”.

With `Cc1nnc2n1-c1sc(CCCc3ccc(CC(C)C)cc3)cc1C(c1ccccc1Cl)=NC2` [Compound I, 4-(2-chlorophenyl)-2-[3-(4-isobutylphenyl)propyl]9-methyl-6H-thieno[3,2-f][1,2,4]triazolo[4,3-a][1,4]diazepine] the IC50 [1] was 0.01 µg/mL (≈ 0.0204 µM).

`Cc1nnc2n1-c1sc(CCc3ccccc3)cc1C(c1ccccc1Cl)=NC2` [Compound G, 4-(2-chlorophenyl)-2-(2-phenylethyl)-9-methyl-6H-thieno[3,2-f][1,2,4]triazolo[4,3-a][1,4]diazepine] gave an IC50 [1] of 0.03 to 0.1 µg/mL (≈ 0.0716 to 0.239 µM).

For `Cc1nnc2n1-c1sc(Cc3ccc(CC(C)C)cc3)cc1C(c1ccccc1Cl)=NC2` [Compound H, 4-(2-chlorophenyl)-2-(4-isobutylbenzyl)-9-methyl-6H-thieno[3,2-f][1,2,4]triazolo[4,3-a][1,4]diazepine], the IC50 [1] was 0.003 to 0.01 µg/mL (≈ 0.00651 to 0.0217 µM).

For `CCCCc1ccc(CCc2cc3c(s2)-n2c(C)nnc2C(C)N=C3c2ccccc2Cl)cc1` (centres unmarked) [Compound L, 4-(2-chlorophenyl)-2-[2-(4-n-butylphenyl)ethyl]6,9-dimethyl-6H-thieno[3,2-f][1,2,4]triazolo[4,3-a][1,4]diazepine], the IC50 [1] was 0.01 to 0.03 µg/mL (≈ 0.0204 to 0.0613 µM).

For `CCCCc1ccc(CCc2cc3c(s2)-n2c(C)nnc2CN=C3c2ccccc2Cl)cc1` [Compound E, 4-(2-chlorophenyl)-2-[2-(4-n-butylphenyl)ethyl]-9-methyl-6H-thieno[3,2-f][1,2,4]triazolo[4,3-a][1,4]diazepine], the IC50 [1] was 0.01 µg/mL (≈ 0.021 µM), the “Inhibition (foot edema)” value ([2]; 0.1 mg/kg oral) was 55% and the “Inhibition (foot edema)” value ([2]; 1 mg/kg oral) was 78%. For the same compound, the “Inhibition (foot edema)” value ([2]; 3 mg/kg oral) was 75%, the “% of inhibition” value [3, 8] was 100±0% and the “% of inhibition” value [3, 9] was 100±0%. For the same compound, the “% of inhibition” value [3, 10] was 100±0%, the “% of inhibition” value [3, 11] was 94±6% and the Survival rate ([4]; 1.0 mg/kg p.o.) was 70.0%. For the same compound, the “number of survivors/number of employed animals” value ([4]; 1.0 mg/kg p.o.) was 7/10, the Survival rate ([4]; 3.0 mg/kg p.o.) was 100.0% and the “number of survivors/number of employed animals” value ([4]; 3.0 mg/kg p.o.) was 10/10.

Compound `COc1ccc(CCc2cc3c(s2)-n2c(C)nnc2CN=C3c2ccccc2Cl)cc1` [Compound D, 4-(2-chlorophenyl)-2-[2-(4-methoxyphenyl)ethyl]-9-methyl-6H-thieno[3,2-f][1,2,4]triazolo[4,3-a][1,4]diazepine] has an IC50 [1] of 0.01 to 0.03 µg/mL (≈ 0.0223 to 0.0668 µM).

For `CCc1nnc2n1-c1sc(CCc3ccc(CC(C)C)cc3)cc1C(c1ccccc1Cl)=NC2` [Compound J, 4-(2-chlorophenyl)-9-ethyl-2-[2-(4-isobutylphenyl)ethyl]-6H-thieno[3,2-f][1,2,4]triazolo[4,3-a][1,4]diazepine], the IC50 [1] was 0.01 to 0.03 µg/mL (≈ 0.0204 to 0.0613 µM).

With `Cc1nnc2n1-c1sc(CCCCc3ccc(CC(C)C)cc3)cc1C(c1ccccc1Cl)=NC2` [Compound C, 4-(2-chlorophenyl)-2-[4-(4-isobutylphenyl)butyl]-9-methyl-6H-thieno[3,2-f][1,2,4]triazolo[4,3-a][1,4]diazepine] the IC50 [1] was 0.03 to 0.1 µg/mL (≈ 0.0596 to 0.199 µM), the Survival rate ([4]; 3.0 mg/kg p.o.) was 100.0% and the “number of survivors/number of employed animals” value ([4]; 3.0 mg/kg p.o.) was 9/9.
